Patent US6740038B2, “Systems and methods for assessing vascular effects of a treatment” (New Health Sciences, Inc., priority 2000, dated 2004)

System: cerebral vessels
Conditions: person after first stroke, Plavix +/- calcium channel blocker
Experimental: A person with a history of hypertension experiences a first stroke in the left middle cerebral artery resulting in deficits in the right hand, leg, and some deficits in motor speech. These are the symptoms upon presentation in the neurological clinic. Transcranial Doppler analysis of all cerebral vessels is performed in addition to analyzing the common carotid artery and the internal carotid artery.
The physician considers prescription of Plavix together with a calcium channel blocker. Transcranial Doppler analysis was performed at monthly intervals. […] The physician subsequently administers a higher dose. Again, transcranial Doppler analysis is performed on all cerebral vessels.
The patient is then monitored on a monthly basis after the initial prescription of Plavix in order to determine whether vascular changes are occurring which necessitate alteration in the therapy.

Compound: COC(=O)[C@H](c1ccccc1Cl)N1CCc2sccc2C1 [Plavix]
- auto-regulation curve (higher dose): left-shifts toward normal
- pulsatility index (higher dose): decreases
- vascular dynamics of the vessel studied (higher dose): marked changes
- changes in the individual cerebral vessels (initial dose, transcranial Doppler at monthly intervals): no effect
